Laboratory results: patent publication US20230055237A1, “COMPOUNDS AND METHODS FOR THE TREATMENT OF CYSTIC FIBROSIS” (Flatley Discovery Lab, LLC, priority 2019, published 2023)

Target: T1, CFTR (Homo sapiens, UniProt P13569, DEL508-508)
T1 construct: Primary CF airway epithelial cells were obtained from the UNC Cystic Fibrosis Tissue Procurement and Cell Culture Core; host or cells: primary CF airway epithelial cells, differentiated at the air-liquid interface
Experiment: Equivalent current assay in primary CF airway epithelial cells (NAUC, combination with 1st site corrector FDL169 or VX-809)
Assay type: cell-based
Conditions: 37° C., 24 h; for Nauc @ 3 μM: test compound 3 μM in combination with 1st site corrector VX-809 (3 μM); for Nauc @ 10 μM: test compound 10 μM in combination with 1st site corrector VX-809 (3 μM); for Nauc @ 1 μM: test compound 1 μM in combination with 1st site corrector VX-809 (3 μM)

T1 sequence (P13569 with tags, fused parts or gaps DEL508-508): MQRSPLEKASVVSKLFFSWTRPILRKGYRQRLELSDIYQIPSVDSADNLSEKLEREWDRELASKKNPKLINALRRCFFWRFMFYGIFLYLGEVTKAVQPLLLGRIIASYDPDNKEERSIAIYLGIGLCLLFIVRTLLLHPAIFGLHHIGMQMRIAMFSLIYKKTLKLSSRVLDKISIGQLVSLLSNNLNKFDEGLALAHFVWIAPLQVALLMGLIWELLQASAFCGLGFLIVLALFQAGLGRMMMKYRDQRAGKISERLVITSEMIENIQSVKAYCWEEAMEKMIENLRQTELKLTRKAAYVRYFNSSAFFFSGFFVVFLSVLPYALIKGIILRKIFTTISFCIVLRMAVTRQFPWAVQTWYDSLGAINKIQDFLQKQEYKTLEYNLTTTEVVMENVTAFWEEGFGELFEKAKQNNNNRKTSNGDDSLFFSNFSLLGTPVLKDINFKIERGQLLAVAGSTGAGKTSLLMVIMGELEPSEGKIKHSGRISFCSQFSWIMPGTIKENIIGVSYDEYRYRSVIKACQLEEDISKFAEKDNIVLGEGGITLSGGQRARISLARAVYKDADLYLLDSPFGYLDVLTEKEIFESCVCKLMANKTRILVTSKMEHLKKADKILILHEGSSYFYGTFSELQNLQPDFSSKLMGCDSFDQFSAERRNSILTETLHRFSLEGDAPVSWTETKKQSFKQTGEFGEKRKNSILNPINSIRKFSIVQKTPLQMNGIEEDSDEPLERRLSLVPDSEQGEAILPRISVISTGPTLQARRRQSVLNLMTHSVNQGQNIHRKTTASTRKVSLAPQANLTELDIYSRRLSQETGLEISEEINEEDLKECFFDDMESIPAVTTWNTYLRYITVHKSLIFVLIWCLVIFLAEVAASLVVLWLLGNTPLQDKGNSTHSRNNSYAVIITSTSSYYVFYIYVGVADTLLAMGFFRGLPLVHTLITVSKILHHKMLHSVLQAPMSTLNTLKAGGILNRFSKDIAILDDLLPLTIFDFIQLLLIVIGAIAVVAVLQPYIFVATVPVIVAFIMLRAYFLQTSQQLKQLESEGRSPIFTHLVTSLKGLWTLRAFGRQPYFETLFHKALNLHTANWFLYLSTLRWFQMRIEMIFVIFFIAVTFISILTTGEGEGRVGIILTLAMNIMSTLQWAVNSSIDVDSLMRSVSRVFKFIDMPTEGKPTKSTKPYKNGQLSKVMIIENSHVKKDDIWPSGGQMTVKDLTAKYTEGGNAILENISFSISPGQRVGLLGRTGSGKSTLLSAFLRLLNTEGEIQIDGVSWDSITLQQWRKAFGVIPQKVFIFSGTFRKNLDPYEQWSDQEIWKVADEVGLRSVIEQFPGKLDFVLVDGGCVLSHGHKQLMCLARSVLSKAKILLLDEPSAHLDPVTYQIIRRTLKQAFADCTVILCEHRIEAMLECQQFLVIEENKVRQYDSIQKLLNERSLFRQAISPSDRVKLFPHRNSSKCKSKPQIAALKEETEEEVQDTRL

Compound	Nauc @ 3 μM	Nauc @ 10 μM	Nauc @ 1 μM
O=C(Nc1cc(Cl)cc(Cl)c1)C1C2C[C@@](O)(C(F)(F)F)CN2C2(C(=O)Nc3c(Cl)cc(Cl)cc32)C1C(=O)O (some centres unmarked) [Example 56]	+++ (NAUC “+++” refers to an observed NAUC>170% of positive control)	+++ (NAUC “+++” refers to an observed NAUC>170% of positive control)	
CN(C(=O)C1C2CC(F)(F)CN2C2(C(=O)Nc3c(Cl)cc(Cl)cc32)C1C(=O)O)c1cc(Cl)cc(Cl)c1 (centres unmarked) [Example 57]	+++ (NAUC “+++” refers to an observed NAUC>170% of positive control)	+++ (NAUC “+++” refers to an observed NAUC>170% of positive control)	
O=C(Nc1cc(Cl)cc(Cl)c1)C1C2C[C@@](O)(C(F)(F)F)CN2C2(C(=O)Nc3c(Cl)cc(Cl)cc32)C1C(=O)O (some centres unmarked) [Example 58]	+ (NAUC “+” refers to an observed NAUC <140% of positive control)	+++ (NAUC “+++” refers to an observed NAUC>170% of positive control)	
O=C(Nc1cc(Cl)cc(Cl)c1)C1C2N(CCC2(F)F)C2(C(=O)Nc3c(Cl)cc(Cl)cc32)C1C(=O)O (centres unmarked) [Example 59]	+ (NAUC “+” refers to an observed NAUC <140% of positive control)	++ (NAUC “++” refers to an observed NAUC 170-140% of positive control)	
O=C(Nc1cc(Cl)cc(Cl)c1)C1C2N(CCC2(F)F)C2(C(=O)Nc3c(Cl)cc(Cl)cc32)C1C(=O)O (centres unmarked) [Example 60]	+++ (NAUC “+++” refers to an observed NAUC>170% of positive control)	+++ (NAUC “+++” refers to an observed NAUC>170% of positive control)	
Cc1ccccc1C(F)(F)C1NC2(C(=O)Nc3c(Cl)cc(Cl)cc32)C(C(=O)O)C1C(=O)Nc1cc(Cl)cc(Cl)c1 (centres unmarked) [Example 61]	+++ (NAUC “+++” refers to an observed NAUC>170% of positive control)	+++ (NAUC “+++” refers to an observed NAUC>170% of positive control)	
Cc1cccc(C(F)(F)C2NC3(C(=O)Nc4c(Cl)cc(Cl)cc43)C(C(=O)O)C2C(=O)Nc2cc(Cl)cc(Cl)c2)c1 (centres unmarked) [Example 62]		+++ (NAUC “+++” refers to an observed NAUC>170% of positive control)	
O=C(Nc1cc(Cl)cc(Cl)c1)C1C(C(F)(F)c2ccccc2Cl)NC2(C(=O)Nc3c(Cl)cc(Cl)cc32)C1C(=O)O (centres unmarked) [Example 63]		+++ (NAUC “+++” refers to an observed NAUC>170% of positive control)	
CC(C)(C)c1cccc(C(C)(C)CNC(=O)C2C3CC(F)(F)CN3C3(C(=O)Nc4c(Cl)cc(Cl)cc43)C2C(=O)O)c1 (centres unmarked) [Example 64]		+++ (NAUC “+++” refers to an observed NAUC>170% of positive control)	
O=C(Nc1cc(Cl)cc(Cl)c1)C1C(C(F)(F)c2ccncc2)NC2(C(=O)Nc3c(Cl)cc(Cl)cc32)C1C(=O)O (centres unmarked) [Example 66.9a, 5,7-dichloro-4′-((3,5-dichlorophenyl)carbamoyl)-5′-(difluoro(pyridin-4-yl)methyl)-2-oxospiro[indoline-3,2′-pyrrolidine]-3′-carboxylic acid]		+ (NAUC “+” refers to an observed NAUC <140% of positive control)	
O=C(Nc1cc(Cl)cc(Cl)c1)C1C(C(F)(F)c2ccc(Cl)cc2)NC2(C(=O)Nc3c(Cl)cc(Cl)cc32)C1C(=O)O (centres unmarked) [Example 67.9a, 5,7-dichloro-5,7′-((4-chlorophenyl)difluoromethyl)-4′-((3,5-dichlorophenyl)carbamoyl)-2-oxospiro[indoline-3,2′-pyrrolidine]-3′-carboxylic acid]		+ (NAUC “+” refers to an observed NAUC <140% of positive control)	
O=C(Nc1cc(Cl)cc(Cl)c1)C1C(C(F)(F)c2ccc(Cl)cc2)NC2(C(=O)Nc3c(Cl)cc(Cl)cc32)C1C(=O)O (centres unmarked) [Example 67.9b, 5,7-dichloro-5,7′-((4-chlorophenyl)difluoromethyl)-4′-((3,5-dichlorophenyl)carbamoyl)-2-oxospiro[indoline-3,2′-pyrrolidine]-3′-carboxylic acid]	++ (NAUC “++” refers to an observed NAUC 170-140% of positive control)	+++ (NAUC “+++” refers to an observed NAUC>170% of positive control)	+ (NAUC “+” refers to an observed NAUC <140% of positive control)
O=C(Nc1cc(Cl)cc(Cl)c1)C1C(C(F)(F)c2cccc(Cl)c2)NC2(C(=O)Nc3c(Cl)cc(Cl)cc32)C1C(=O)O (centres unmarked) [Example 68.a]		+ (NAUC “+” refers to an observed NAUC <140% of positive control)	
O=C(Nc1cc(Cl)cc(Cl)c1)C1C(C(F)(F)c2cccc(Cl)c2)NC2(C(=O)Nc3c(Cl)cc(Cl)cc32)C1C(=O)O (centres unmarked) [Example 68.b]		+ (NAUC “+” refers to an observed NAUC <140% of positive control)	
O=C(Nc1cc(Cl)cc(Cl)c1)C1C(C(F)(F)c2cccc(Cl)c2)NC2(C(=O)Nc3c(Cl)cc(Cl)cc32)C1C(=O)O (centres unmarked) [Example 68.c]	+++ (NAUC “+++” refers to an observed NAUC>170% of positive control)	+++ (NAUC “+++” refers to an observed NAUC>170% of positive control)	+ (NAUC “+” refers to an observed NAUC <140% of positive control)
O=C(Nc1cc(Cl)cc(Cl)c1)C1C(C(F)(F)c2ccccc2C(F)(F)F)NC2(C(=O)Nc3c(Cl)cc(Cl)cc32)C1C(=O)O (centres unmarked) [Example 69.a]		+ (NAUC “+” refers to an observed NAUC <140% of positive control)	
O=C(Nc1cc(Cl)cc(Cl)c1)C1C(C(F)(F)c2ccccc2C(F)(F)F)NC2(C(=O)Nc3c(Cl)cc(Cl)cc32)C1C(=O)O (centres unmarked) [Example 69.b]	+++ (NAUC “+++” refers to an observed NAUC>170% of positive control)	++ (NAUC “++” refers to an observed NAUC 170-140% of positive control)	++ (NAUC “++” refers to an observed NAUC 170-140% of positive control)

Compound	Nauc @ 3 μM	Nauc @ 10 μM	Nauc @ 1 μM
O=C(Nc1cc(Cl)cc(Cl)c1)C1C(C(F)(F)c2cccc(C(F)(F)F)c2)NC2(C(=O)Nc3c(Cl)cc(Cl)cc32)C1C(=O)O (centres unmarked) [Example 70.a]		+ (NAUC “+” refers to an observed NAUC <140% of positive control)	
O=C(Nc1cc(Cl)cc(Cl)c1)C1C(C(F)(F)c2cccc(C(F)(F)F)c2)NC2(C(=O)Nc3c(Cl)cc(Cl)cc32)C1C(=O)O (centres unmarked) [Example 70.b]		+ (NAUC “+” refers to an observed NAUC <140% of positive control)	
O=C(Nc1cc(Cl)cc(Cl)c1)C1C(C(F)(F)c2cccc(C(F)(F)F)c2)NC2(C(=O)Nc3c(Cl)cc(Cl)cc32)C1C(=O)O (centres unmarked) [Example 70.c]	+ (NAUC “+” refers to an observed NAUC <140% of positive control)	+++ (NAUC “+++” refers to an observed NAUC>170% of positive control)	+ (NAUC “+” refers to an observed NAUC <140% of positive control)
Cc1ccc(C(F)(F)C2NC3(C(=O)Nc4c(Cl)cc(Cl)cc43)C(C(=O)O)C2C(=O)Nc2cc(Cl)cc(Cl)c2)cc1 (centres unmarked) [Example 71.a]		+++ (NAUC “+++” refers to an observed NAUC>170% of positive control)	
O=C(Nc1cc(Cl)cc(Cl)c1)C1C(C(F)(F)c2ccccn2)NC2(C(=O)Nc3c(Cl)cc(Cl)cc32)C1C(=O)O (centres unmarked) [Example 72.a]		+ (NAUC “+” refers to an observed NAUC <140% of positive control)	
O=C(Nc1cc(Cl)cc(Cl)c1)C1C(C(F)(F)c2ccccn2)NC2(C(=O)Nc3c(Cl)cc(Cl)cc32)C1C(=O)O (centres unmarked) [Example 72.b]		+ (NAUC “+” refers to an observed NAUC <140% of positive control)	
O=C(Nc1cc(Cl)cc(Cl)c1)C1C(C(F)(F)c2ccccn2)NC2(C(=O)Nc3c(Cl)cc(Cl)cc32)C1C(=O)O (centres unmarked) [Example 72.c]		++ (NAUC “++” refers to an observed NAUC 170-140% of positive control)	
O=C(Nc1cc(Cl)cc(Cl)c1)C1C(C(F)(F)c2ccc(C(F)(F)F)cc2)NC2(C(=O)Nc3c(Cl)cc(Cl)cc32)C1C(=O)O (centres unmarked) [Example 73.a]		+ (NAUC “+” refers to an observed NAUC <140% of positive control)	
O=C(Nc1cc(Cl)cc(Cl)c1)C1C(C(F)(F)c2ccc(C(F)(F)F)cc2)NC2(C(=O)Nc3c(Cl)cc(Cl)cc32)C1C(=O)O (centres unmarked) [Example 73.b]		+ (NAUC “+” refers to an observed NAUC <140% of positive control)	
O=C(Nc1cc(Cl)cc(Cl)c1)C1C(C(F)(F)c2ccc(C(F)(F)F)cc2)NC2(C(=O)Nc3c(Cl)cc(Cl)cc32)C1C(=O)O (centres unmarked) [Example 73.c]	+ (NAUC “+” refers to an observed NAUC <140% of positive control)	+++ (NAUC “+++” refers to an observed NAUC>170% of positive control)	+ (NAUC “+” refers to an observed NAUC <140% of positive control)
O=C(Nc1cc(Cl)cc(Cl)c1)C1C(C(F)(F)c2cccnc2)NC2(C(=O)Nc3c(Cl)cc(Cl)cc32)C1C(=O)O (centres unmarked) [Example 74.a]		+ (NAUC “+” refers to an observed NAUC <140% of positive control)	
O=C(Nc1cccc(O)c1)C1C2CC(F)(F)CN2C2(C(=O)Nc3c(Cl)cc(Cl)cc32)C1C(=O)O (centres unmarked) [Example 76.a]		+ (NAUC “+” refers to an observed NAUC <140% of positive control)	
O=C(Nc1ccc(O)cc1)C1C2CC(F)(F)CN2C2(C(=O)Nc3c(Cl)cc(Cl)cc32)C1C(=O)O (centres unmarked) [Example 77.a]		+ (NAUC “+” refers to an observed NAUC <140% of positive control)	
O=C(Nc1ccccc1O)C1C2CC(F)(F)CN2C2(C(=O)Nc3c(Cl)cc(Cl)cc32)C1C(=O)O (centres unmarked) [Example 78.a]		+ (NAUC “+” refers to an observed NAUC <140% of positive control)	
O=C(Nc1cc(Cl)cc(Cl)c1)C1CN(CC(F)(F)F)C2(C(=O)Nc3c(Cl)cc(Cl)cc32)C1C(=O)O (centres unmarked) [Example 79a]	+ (NAUC “+” refers to an observed NAUC <140% of positive control)	+ (NAUC “+” refers to an observed NAUC <140% of positive control)	+ (NAUC “+” refers to an observed NAUC <140% of positive control)
O=C(Nc1cc(Cl)cc(Cl)c1)C1CN(CC(F)(F)F)C2(C(=O)Nc3c(Cl)cc(Cl)cc32)C1C(=O)O (centres unmarked) [Example 79b]	+ (NAUC “+” refers to an observed NAUC <140% of positive control)	++ (NAUC “++” refers to an observed NAUC 170-140% of positive control)	+ (NAUC “+” refers to an observed NAUC <140% of positive control)
